Source: patent publication US7265139B2, “RXR activating molecules” (Incyte San Diego Inc., priority 2001, dated 2007)

How the values were obtained:
[1] = tested on: Mouse 3T3-L1 preadipocytes; test: 3T3-L1 adipocyte differentiation assay; assay type: cell-based; settings: 0.1 μM compared to Compound 1 at equal concentration; pre-adipocytes to adipocytes
Experimental: Mouse 3T3-L1 cells were grown in 96-well tissue culture plates containing growing medium (DME containing 10% calf serum (CS) plus glutamine-pen-strep) at a density of 3,000 cells/well. Two days after reaching confluence, cells are treated with the different compounds in DM (Day 0). Compound 1 is included in all the experiments, and its ability to differentiate 3T3-L1 cells at 0.1 μM is taken as reference for 100% differentiation. After 7 days the lipid content of the cells was determined.
Prior to testing compounds in vivo, they can be run through the in vitro adipocyte differentiation assay based on the protocol of Zhang, et al. (1996) Negative Regulation of Peroxisome Proliferator—Activated Receptor—γGene Expression Contributes to the Antiadipogenic effects of Tumor Necrosis Factor—α. Mol. Endo. 10:1457-1456, incorporated herein by reference. In short, mouse 3T3-L1 preadipocytes are grown in culture medium containing 10% calf serum supplemented with antibiotics. Two days after reaching confluence, cells are treated with the selected compound at different concentrations dissolved in medium containing 10% fetal calf serum supplemented with antibiotics and kept at 10% CO2. The test compounds are replaced every 2-3 days. Differentiation is assessed after 7 days of treatment by the lipid content in the cells, using the Triglyceride (INFINITY) reagent (Sigma Chemical, St. Louis, Mo.).
The ability of a compound to induce preadipocytes to differentiate into adipocytes is an indicator of its antidiabetic activity. This allows for screening many compounds in a simple in vitro assay, thus avoiding the task of testing all compounds in vivo. The adipocyte differentiation assay is based on the protocol of Zhang, et al. (1996) Negative Regulation of Peroxisome Proliferator-Activated Receptor-γ Gene Expression Contributes to the Antiadipogenic effects of Tumor Necrosis Factor—α. Mol. Endo. 10:1457-1456, incorporated herein by reference at least for material related to adipocyte differentiation assays. Mouse 3T3-L1 preadipocytes are grown in culture medium containing 10% calf serum supplemented with antibiotics. Two days after reaching confluence, cells are treated with the selected compound at different concentrations dissolved in medium containing 10% fetal calf serum supplemented with antibiotics and kept at 10% CO2. The test compounds are replaced every 2-3 days. Differentiation is assessed after 7 days of treatment by the lipid content in the cells, using the Triglyceride (INFINITY) reagent (Sigma Chemical, St. Louis, Mo.) (see FIG. 15).

BALB/c mice = test: Effect on serum triglyceride levels in wild type BALB/c mice; assay type: in vivo, mouse; settings: FIG. 12
Experimental: The animals were treated with a single daily oral dose of the test compound suspended in sesame oil (dose volume of 5 ml/kg). […], Animas treated with 10 and 30 mg/kg of Compound 1, which are doses that are 30 and 100 times the efficacious does in diabetic db/db mice, respectively, caused no increase in serum triglyceride levels compared to vehicle treated control animals.
Test compounds are tested in wild type mice at 10-100 times the efficacious dose in diabetic mice. Typically, adult male BALB/c mice are housed in a fixed 12—12-hr artificial light-dark cycle, and maintained on a standard rodent diet. The animals are treated with a single daily oral dose of the test compound suspended in sesame oil (dose volume of 5 ml/kg) as also described in the examples. Approximately two weeks later the animals are bled from the tail vein, then necropsied following sacrifice by carbon dioxide asphyxiation. Several serum biochemical parameters are measured. Of special significance is the effect the selected compounds have on serum triglyceride levels compared to vehicle treated control animals.
For these studies, adult male BALB/c mice were housed in a fixed 12—12-hr artificial light-dark cycle, and maintained on a standard rodent diet. The animals were treated with a single daily oral dose of the test compound suspended in sesame oil (dose volume of 5 ml/kg).

KKA^y mice = test: Antidiabetic activity in type 2 diabetic KKA^y mice; assay type: in vivo, mouse
Experimental: Prior to commencing treatment, all of the animals are bled from the tail vein and serum levels of glucose and triglyceride are measured in duplicate. The animals are then sorted into different treatment groups with equal average triglyceride levels. The animals are treated with a single daily oral dose of the test compound suspended in sesame oil (dose volume of 3 ml/kg).
In short, adult diabetic KKA^y mice are housed in a fixed 12—12-hr artificial light-dark cycle, and maintained on a standard rodent diet. Prior to commencing treatment, all of the animals are bled from the tail vein and serum levels of glucose and triglyceride are measured in duplicate. The animals are then sorted into different treatment groups with equal average triglyceride levels. The animals are treated with a single daily oral dose ranging from 3-30 mg/kg of the test compound suspended in sesame oil (dose volume of 3-5 ml/kg). Following one week of treatment the animals are bled from the tail vein and Serum glucose and triglycerides are measured in duplicate.
In this example, compound 1, which belongs to the novel subclass of RXR ligands is compared to a typical RXR ligand like compound 2 in the treatment of KKA^y mice.
For this study, adult diabetic KKA^y mice were housed in a fixed 12—12-hr artificial light-dark cycle, and maintained on a standard rodent diet. Prior to commencing treatment, all of the animals are bled from the tail vein and serum levels of glucose and triglyceride are measured in duplicate. The animals are then sorted into different treatment groups with equal average triglyceride levels. The animals are treated with a single daily oral dose of the test compound suspended in sesame oil (dose volume of 3 ml/kg).

[2] = following one and two weeks of treatment

Question: With `Cc1cc2c(cc1-c1cc(C=C3SC(=O)NC3=O)ccc1OC(F)(F)F)C(C)(C)CCC2(C)C` [Compound 1] as the compound, how does the “Differentiation Activity” value [1] read?
Answer: The value was 100%.

Question: And the “serum triglyceride levels compared to vehicle treated control animals” value (BALB/c mice; 10 and 30 mg/kg, daily oral, 14 days)?
Answer: The value was “no increase”.

Question: What about the “triglyceride levels compared to vehicle treated controls” value (BALB/c mice; 10 and 30 mg/kg/day for 10 days) of the same compound?
Answer: The value was “does not change”.

Question: What about the “serum glucose levels compared to vehicle treated control mice” value (KKA^y mice; 5 mg/kg, single daily oral dose in sesame oil, FIG. 10, p≦0.01) of the same compound?
Answer: Its value is “significant decrease”.

Question: And the “serum triglyceride levels compared to vehicle treated control mice” value (KKA^y mice; 5 mg/kg, single daily oral dose, FIG. 11, p≦0.05)?
Answer: Its value is “significant decrease”.

Question: What about the “Efficacious in KKAy Mice” value (KKA^y mice; efficacious = lowers glucose without increasing triglycerides) of the same compound?
Answer: Its value is “Yes”.

Question: What about the “glucose levels compared to vehicle treated control mice” value (KKA^y mice; [2]) of the same compound?
Answer: Its value is “statistically significant decrease”.

Question: And the “triglyceride levels compared to vehicle treated control mice” value (KKA^y mice; [2])?
Answer: The value was “statistically significant decrease”.
